# Read-outs that look alike come from different tables or passages of the source.
# Columns and labels:
# [1] = Moisture stability at accelerated stress conditions, analysed by PXRD; type: physicochemical; conditions: open storage, physical form by PXRD
# Protocol: Powder X-ray diffraction was performed with a PANalytical X'Pert PRO diffractometer equipped with a theta/theta coupled goniometer in transmission geometry, Cu-Kalpha1,2 radiation (wavelength 0.15419 nm) with a focusing mirror and a solid state PIXcel detector. Diffractograms were recorded at a tube voltage of 45 kV and a tube current of 40 mA, applying a stepsize of 0.013° 2-Theta with 40 s per step (255 channels) in the angular range of 2° to 40° 2-Theta at ambient conditions.
# Moisture stability at accelerated stress conditions was performed in a Memmert constant climate chamber HPP110. 30-50 mg of a given solid composition prepared according to the Examples and Comparative Example herein were exposed to an atmosphere having a relative humidity of 75±0.5% and a temperature of 40±0.5° C. for a period of time as indicated in Tables 1-3 below and analyzed via PXRD as described above.
# Brigatinib (1.50 g, e.g. prepared according to the procedures disclosed in WO 2016/065028 A1, part V) was dissolved in 75 mL of acetonitrile/water solution (volume ratio 50:50). The solution was filtered. The homogeneous solution was frozen in a bath of liquid nitrogen and lyophilized at a pressure of from 0.02 to 1.0 mbar, yielding amorphous brigatinib, as confirmed by the PXRD depicted in FIG. 1. The obtained amorphous brigatinib was stored open under accelerated stability conditions (temperature: 40° C., relative humidity: 75%).
# Brigatinib (about 100 mg, e.g. prepared according to the procedures disclosed in WO 2016/065028 A1, part V) and the organic polymer (about 100 mg) according to Table 2 were dissolved in 7 to 8 mL of acetonitrile/water solution (volume ratio 50:50). The homogeneous solution was frozen in a bath of liquid nitrogen and lyophilized at a pressure of from 0.02 to 1.0 mbar, yielding an amorphous solid dispersion of brigatinib. The so obtained solid dispersion was open stored under accelerated stability conditions (temperature: 40° C., relative humidity: 75%) for three weeks. […]
# [2] = Stability in the amorphous state upon storage (PXRD), general statements; type: physicochemical; conditions: conditions not given, judged by PXRD
# Text: The brigatinib in the context of the solid dispersion of the present invention is stable in the amorphous state upon storage, as judged by the absence of characteristic PXRD peaks after storage. […] Also in the context of solid dispersions with carriers such as polyvinylpyrrolidon PVP-40000 or Syloid® AL-1FP, amorphous brigatinib converts to crystalline brigatinib upon storage.
# [3] = cited from earlier work
# [4] = Thermogravimetric mass spectroscopy (TGMS) thermal stability; type: physicochemical; conditions: heated 25° C. to 250° C. at 10° C./min
# Protocol: Thermogravimetric analysis (TGA) was performed on a Mettler Toledo TGA/DSC 1 instrument. Samples were heated in 100 μl aluminium pans closed with aluminium lids. Lids were automatically pierced at the beginning of the measurement. Samples were initially kept at 25° C. for 2.5 minutes and then heated from room temperature to 250° C. at a rate of 10° C./min. Nitrogen (purge rate 30 ml/min) was used as purge gas.
# Mass spectrometry (MS) measurements, coupled with thermogravimetric analysis (TGA), were performed with a Pfeiffer GSD 320 ThermoStar Gas Analysis System. A part of the headspace was evacuated with a capillary placed near the TG sample pan, and mass fragments between 1-100 atomic mass units (amu) were analyzed simultaneously without further separation applying a secondary electron multiplier (SEM) for signal amplification.
# [5] = as described in WO 2016/065028 A1
smiles,measurement,setting,value
"COc1cc(N2CCC(N3CCN(C)CC3)CC2)ccc1Nc1ncc(Cl)c(Nc2ccccc2P(C)(C)=O)n1 [Brigatinib, 5-chloro-N4-[2-(dimethylphosphoryl)phenyl]-N2-[2-methoxy-4-[4-(4-methylpiperazin-1-yl)piperidin-1-yl]phenyl]pyrimidine-2,4-diamine]",PXRD analysis after storage at 40° C. and 75% RH for 1 week,[1],Form A
same,PXRD analysis after storage at 40° C. and 75% RH for 1 week,[1]; listed as neat amorphous brigatinib,contained crystalline Form A
same,PXRD analysis after storage at 40° C. and 75% RH for 3 weeks,[1]; 3 weeks,Form A
same,Stability of the amorphous state upon storage,[2],readily converts to crystalline form A of brigatinib upon storage for as short as one week only
"COc1cc(N2CCC(N3CCN(C)CC3)CC2)ccc1Nc1ncc(Cl)c(Nc2ccccc2P(C)(C)=O)n1 [Form B, 5-chloro-N4-[2-(dimethylphosphoryl)phenyl]-N2-[2-methoxy-4-[4-(4-methylpiperazin-1-yl)piperidin-1-yl]phenyl]pyrimidine-2,4-diamine]",Hygroscopicity,[3]; [5],hydroscopic
same,Relative humidity at which the form reversibly converts to hydrated crystalline forms C or D,[3]; [5],above 30%
same,Temperature at which the form transforms to form A,"[3]; elevated temperature, WO 2016/065028 A1",above 150 °C
"COc1cc(N2CCC(N3CCN(C)CC3)CC2)ccc1Nc1ncc(Cl)c(Nc2ccccc2P(C)(C)=O)n1 [brigatinib form A, 5-chloro-N4-[2-(dimethylphosphoryl)phenyl]-N2-[2-methoxy-4-[4-(4-methylpiperazin-1-yl)piperidin-1-yl]phenyl]pyrimidine-2,4-diamine]",Temperature at which the chemistry of the sample changes (TGMS),[4],about 100 °C
same,Hygroscopicity,"[3]; as described in WO 2016/065028 A1, listed as Form A",non-hygroscopic

# — patent US20210046096A1, “Pharmaceutical Composition of Brigatinib” (Sandoz AG, priority 2018, published 2021)
